According to PubChem BioAssay AID256 (DTP/NCI, 2004):
Values joined by “and” are separate entries in the source; they are usually repeats but may differ in a detail not shown here. Identical values can stand only once. Toxic doses and inconclusive results are not listed.

Test system: CD2F1 mice, L1210 leukemia ip, survival T/C
Assay: NCI In Vivo Anticancer Drug Screen. Data for tumor model L1210 Leukemia (intraperitoneal) in CD2F1 (CDF1) mice
Conditions: higher = longer survival
How it was run: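 In this screen, transplantable tumors were grown in mice given either the compound or its vehicle. Results were expressed as the treated measurement relative to the control measurement.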

[1] = endpoint: mean survival time, dose: 100.0 mg/kg/injection, schedule: Q04DX003 (ip), vehicle: saline with Tween-80
[2] = endpoint: mean survival time, dose: 200.0 mg/kg/injection, schedule: Q04DX003 (ip), vehicle: saline with Tween-80
[3] = endpoint: mean survival time, dose: 400.0 mg/kg/injection, schedule: Q04DX003 (ip), vehicle: saline with Tween-80

N#Cc1cn(C2OC(CO)C(O)C2O)c2ncnc(N)c12 (configuration not stated)
T/C (endpoint: mean survival time, dose: 0.06 mg/kg/injection, schedule: Q01DX009 (ip), vehicle: saline): 106 % of control
T/C (endpoint: mean survival time, dose: 0.13 mg/kg/injection, schedule: Q01DX009 (ip), vehicle: saline): 110 % of control
T/C (endpoint: mean survival time, dose: 0.5 mg/kg/injection, schedule: Q01DX009 (ip), vehicle: saline): 111 % of control
T/C (endpoint: mean survival time, dose: 1.0 mg/kg/injection, schedule: Q01DX009 (ip), vehicle: saline): 95 % of control
T/C (endpoint: median survival time, dose: 0.1 mg/kg/injection, schedule: Q06HX024 (ip), vehicle: saline): 100 % of control
T/C (endpoint: median survival time, dose: 0.2 mg/kg/injection, schedule: Q06HX024 (ip), vehicle: saline): 102 % of control
T/C (endpoint: median survival time, dose: 0.4 mg/kg/injection, schedule: Q06HX024 (ip), vehicle: saline): 109 % of control

CC1C=CC(=O)O1 (configuration not stated)
T/C (endpoint: mean survival time, dose: 50.0 mg/kg/injection, schedule: Q04DX002 (ip), vehicle: saline with Tween-80): 100 % of control
T/C (endpoint: mean survival time, dose: 100.0 mg/kg/injection, schedule: Q04DX002 (ip), vehicle: saline with Tween-80): 103 % of control

OCCO
T/C (endpoint: mean survival time, dose: 100.0 mg/kg/injection, schedule: Q01DX009 (ip), vehicle: saline sonified): 94 % of control and 101 % of control
T/C (endpoint: mean survival time, dose: 100.0 mg/kg/injection, schedule: Q04DX003 (ip), vehicle: saline): 103 % of control and 106 % of control
T/C (endpoint: mean survival time, dose: 200.0 mg/kg/injection, schedule: Q01DX009 (ip), vehicle: saline sonified): 94 % of control and 101 % of control
T/C (endpoint: mean survival time, dose: 200.0 mg/kg/injection, schedule: Q04DX003 (ip), vehicle: saline): 104 % of control and 98 % of control
T/C (endpoint: mean survival time, dose: 400.0 mg/kg/injection, schedule: Q01DX009 (ip), vehicle: saline sonified): 93 % of control and 104 % of control
T/C (endpoint: mean survival time, dose: 400.0 mg/kg/injection, schedule: Q04DX003 (ip), vehicle: saline): 104 % of control and 101 % of control
T/C (endpoint: median survival time, dose: 0.25 % in 0.5 ml injection vol, schedule: Q01DX009 (ip), vehicle: water): 95 % of control
T/C (endpoint: median survival time, dose: 0.5 % in 0.5 ml injection vol, schedule: Q01DX009 (ip), vehicle: water): 94 % of control
T/C (endpoint: median survival time, dose: 1.0 % in 0.5 ml injection vol, schedule: Q01DX009 (ip), vehicle: water): 94 % of control
T/C (endpoint: median survival time, dose: 2.0 % in 0.5 ml injection vol, schedule: Q01DX009 (ip), vehicle: water): 105 % of control

O=NN(CCSCCCCl)C(=O)NC1CCCCC1
T/C (endpoint: mean survival time, dose: 6.25 mg/kg/injection, schedule: Q01DX001 (ip), vehicle: distilled water + Tween-80): 96 % of control
T/C (endpoint: mean survival time, dose: 12.5 mg/kg/injection, schedule: Q01DX001 (ip), vehicle: distilled water + Tween-80): 96 % of control
T/C (endpoint: mean survival time, dose: 25.0 mg/kg/injection, schedule: Q01DX001 (ip), vehicle: distilled water + Tween-80): 101 % of control
T/C (endpoint: mean survival time, dose: 50.0 mg/kg/injection, schedule: Q01DX001 (ip), vehicle: distilled water + Tween-80): 102 % of control
T/C (endpoint: mean survival time, dose: 100.0 mg/kg/injection, schedule: Q01DX001 (ip), vehicle: distilled water + Tween-80): 101 % of control
T/C (endpoint: mean survival time, dose: 200.0 mg/kg/injection, schedule: Q01DX001 (ip), vehicle: distilled water + Tween-80): 102 % of control
T/C (endpoint: mean survival time, dose: 400.0 mg/kg/injection, schedule: Q01DX001 (ip), vehicle: distilled water + Tween-80): 118 % of control

Cc1nc2ccc(Cl)c(Cl)c2s1
T/C [1]: 106 % of control
T/C [2]: 106 % of control
T/C [3]: 104 % of control

COc1ccc(C(=O)CC(C#N)c2ccc(OC)c(OC)c2)cc1OC (configuration not stated)
T/C [1]: 98 % of control
T/C [2]: 101 % of control
T/C [3]: 98 % of control

N#C[CH2][Sn]([I])([c]1ccccc1)[c]1ccccc1
T/C (endpoint: mean survival time, dose: 0.39 mg/kg/injection, schedule: Q01DX009 (ip), vehicle: saline): 103 % of control
T/C (endpoint: mean survival time, dose: 0.78 mg/kg/injection, schedule: Q01DX009 (ip), vehicle: saline): 100 % of control

Nc1ncnc2c(C3OC(CO)C(O)C3O)c[nH]c12 (configuration not stated)
T/C (endpoint: median survival time, dose: 0.05 mg/kg/injection, schedule: Q01DX005 (ip), vehicle: saline): 114 % of control and 121 % of control
T/C (endpoint: median survival time, dose: 0.1 mg/kg/injection, schedule: Q01DX005 (ip), vehicle: saline): 116 % of control and 123 % of control
T/C (endpoint: median survival time, dose: 0.4 mg/kg/injection, schedule: Q01DX005 (ip), vehicle: saline): 115 % of control
T/C (endpoint: median survival time, dose: 0.8 mg/kg/injection, schedule: Q01DX005 (ip), vehicle: saline): 102 % of control and 104 % of control

N#Cc1ccc(NN=O)nc1
T/C (endpoint: median survival time, dose: 3.12 mg/kg/injection, schedule: Q01DX005 (ip), vehicle: water): 109 % of control
T/C (endpoint: median survival time, dose: 6.25 mg/kg/injection, schedule: Q01DX005 (ip), vehicle: water): 120 % of control
T/C (endpoint: median survival time, dose: 12.5 mg/kg/injection, schedule: Q01DX005 (ip), vehicle: water): 124 % of control
T/C (endpoint: median survival time, dose: 15.0 mg/kg/injection, schedule: Q01DX005 (ip), vehicle: water): 152 % of control and 158 % of control
T/C (endpoint: median survival time, dose: 25.0 mg/kg/injection, schedule: Q01DX005 (ip), vehicle: water): 164 % of control and 175 % of control
T/C (endpoint: median survival time, dose: 41.66 mg/kg/injection, schedule: Q01DX005 (ip), vehicle: water): 191 % of control
T/C (endpoint: median survival time, dose: 50.0 mg/kg/injection, schedule: Q01DX005 (ip), vehicle: water): 95 % of control
T/C (endpoint: median survival time, dose: 69.4 mg/kg/injection, schedule: Q01DX005 (ip), vehicle: water): 118 % of control

O=C(CCCCl)Oc1ccccc1
T/C [1]: 87 % of control
T/C [2]: 87 % of control
T/C [3]: 103 % of control

O=[N+]([O-])c1ccc(N/N=C2\C(c3ccccc3)=C(c3ccccc3)CC2Cl)c([N+](=O)[O-])c1 (configuration not stated)
T/C (endpoint: mean survival time, dose: 100.0 mg/kg/injection, schedule: Q01DX001 (ip), vehicle: saline with Tween-80): 90 % of control
T/C (endpoint: mean survival time, dose: 200.0 mg/kg/injection, schedule: Q01DX001 (ip), vehicle: saline with Tween-80): 101 % of control
T/C (endpoint: mean survival time, dose: 400.0 mg/kg/injection, schedule: Q01DX001 (ip), vehicle: saline with Tween-80): 96 % of control
